Laboratory results from ChEMBL document CHEMBL5247605, “Discovery of potent indazole-based human glutaminyl cyclase (QC) inhibitors as Anti-Alzheimer's disease agents” (Eur J Med Chem, 2022).
Activity calls are given as the source filed them. The rule behind the calls is not given here.

Columns and labels:
[1] = Cytotoxicity against mouse HT-22 cells assessed as cell viability at 10 uM incubated for 18 hrs by MTT assay relative to control; format: toxicity, cell-based; settings: read-out: Activity
hERG (KCNH2) = hERG (KCNH2) (Homo sapiens, UniProt Q12809); assay: Inhibition of hERG at 10 uM by fluorescence polarization assay relative to control; format: toxicity
[2] = target: Glutaminyl-peptide cyclotransferase (Mus musculus, UniProt Q9CYK2); assay: Inhibition of mouse glutaminyl cyclase
[3] = Metabolic stability in human liver microsomes assessed as compound remaining after 30 mins; format: ADME, Microsome; settings: read-out: Stability
Mus musculus [4] = assay: Antialzheimer activity in human amyloid beta (3 to 40 residues) induced ICR mouse model assessed as inhibition of pyroglutamate form of amyloid-beta formation in brain at 10 mM, icv by sandwich ELISA relative to control; format: functional
[5] = Metabolic stability in mouse liver microsomes assessed as compound remaining after 30 mins; format: ADME, Microsome; settings: read-out: Stability
[6] = target: Voltage-gated inwardly rectifying potassium channel KCNH2 (Homo sapiens, UniProt Q12809); assay: Inhibition of hERG by fluorescence polarization assay; format: toxicity
Mus musculus [7] = organism: Mus musculus; settings: ICR, dose 10.0 mM, route icv

Chain of Glutaminyl-peptide cyclotransferase (Q9CYK2 whole entry): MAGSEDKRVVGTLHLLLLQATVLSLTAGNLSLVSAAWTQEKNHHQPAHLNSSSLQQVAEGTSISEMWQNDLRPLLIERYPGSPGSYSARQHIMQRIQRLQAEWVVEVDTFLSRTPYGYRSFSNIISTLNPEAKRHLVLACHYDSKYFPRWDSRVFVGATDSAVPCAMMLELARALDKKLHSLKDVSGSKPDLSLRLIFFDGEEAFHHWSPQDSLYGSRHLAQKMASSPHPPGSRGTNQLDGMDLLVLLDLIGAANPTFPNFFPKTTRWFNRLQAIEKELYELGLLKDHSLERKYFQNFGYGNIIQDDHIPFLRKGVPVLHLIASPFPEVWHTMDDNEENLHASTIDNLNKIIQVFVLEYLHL
Chain of hERG (KCNH2) (Q12809 whole entry): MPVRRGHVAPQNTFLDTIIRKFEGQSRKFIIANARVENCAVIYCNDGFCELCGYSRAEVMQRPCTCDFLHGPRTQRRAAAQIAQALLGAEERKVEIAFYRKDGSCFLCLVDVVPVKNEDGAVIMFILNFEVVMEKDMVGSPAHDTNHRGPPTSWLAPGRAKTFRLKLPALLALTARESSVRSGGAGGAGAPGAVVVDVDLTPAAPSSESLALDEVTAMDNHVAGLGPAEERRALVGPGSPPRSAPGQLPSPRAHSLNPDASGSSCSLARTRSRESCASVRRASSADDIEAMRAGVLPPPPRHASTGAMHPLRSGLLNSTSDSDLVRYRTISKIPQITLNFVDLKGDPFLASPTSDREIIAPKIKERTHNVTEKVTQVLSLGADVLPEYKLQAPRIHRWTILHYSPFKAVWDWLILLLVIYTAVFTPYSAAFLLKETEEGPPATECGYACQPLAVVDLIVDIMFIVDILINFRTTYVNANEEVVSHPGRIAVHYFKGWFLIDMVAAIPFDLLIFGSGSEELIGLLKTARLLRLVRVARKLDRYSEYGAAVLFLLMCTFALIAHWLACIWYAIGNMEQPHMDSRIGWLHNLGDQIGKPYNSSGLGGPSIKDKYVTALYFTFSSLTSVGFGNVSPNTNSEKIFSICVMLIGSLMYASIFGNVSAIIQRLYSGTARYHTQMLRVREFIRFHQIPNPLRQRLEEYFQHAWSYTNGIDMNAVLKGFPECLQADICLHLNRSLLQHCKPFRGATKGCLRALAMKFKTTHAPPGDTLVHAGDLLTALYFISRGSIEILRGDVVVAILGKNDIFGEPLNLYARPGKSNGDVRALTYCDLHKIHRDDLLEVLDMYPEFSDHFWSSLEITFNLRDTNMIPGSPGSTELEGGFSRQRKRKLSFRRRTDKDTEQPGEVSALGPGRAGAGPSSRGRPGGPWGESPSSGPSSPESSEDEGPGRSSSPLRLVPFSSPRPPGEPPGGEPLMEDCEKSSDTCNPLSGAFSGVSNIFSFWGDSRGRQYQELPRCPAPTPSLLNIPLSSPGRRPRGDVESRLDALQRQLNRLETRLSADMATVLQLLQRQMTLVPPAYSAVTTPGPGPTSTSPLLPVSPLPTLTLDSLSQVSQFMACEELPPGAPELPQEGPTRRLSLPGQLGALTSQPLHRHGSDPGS
Chain of Voltage-gated inwardly rectifying potassium channel KCNH2 (Q12809 whole entry): as above

Row | Compound | viability at 18 h, 10 µM [1] | inhibition at 10 µM (hERG (KCNH2)) | IC50 [2] | remaining at 0.5 h [3] | inhibition (INH) (Mus musculus [4]) | remaining at 0.5 h [5] | IC50 [6] | inhibition (Mus musculus [7])
1 | Cc1n[nH]c2cc(N(CC3CCCC3)C(=O)NCCCn3cncc3C)ccc12 | 96.9% | 80.8% | 0.0182 µM | 37% | 25.5% | 11.8% | > 10 µM | –
2 | Cc1nn(C)c2ccc(N(Cc3ccc(F)cc3)C(=O)NCCCn3cncc3C)cc12 | 108% | 63.6% | – | – | 7% | – | > 10 µM | –
3 | Cc1nn(C)c2cc(N(Cc3ccc(F)cc3)C(=O)NCCCn3cncc3C)ccc12 | 102% | 56.5% | – | – | – | – | – | inactive
4 | Cc1nn(C)c2ccc(N(CC3CCCC3)C(=O)NCCCn3cncc3C)cc12 | 104% | 81.5% | – | – | – | – | > 10 µM | inactive
5 | Cc1nn(C)c2ccc(N(C(=O)NCCCn3cncc3C)C3CCCCC3)cc12 | 99.1% | 58.1% | – | – | – | – | > 10 µM | inactive
6 | Cc1n[nH]c2cc(N(C(=O)NCCCn3cncc3C)C3CCCCC3)ccc12 | 100% | 47.6% | 0.0342 µM | 50.4% | 25% | 18.4% | < 10 µM | –
7 | Cc1n[nH]c2cc(N(Cc3ccc(F)cc3)C(=O)NCCCn3cncc3C)ccc12 | 92.1% | 61.9% | 0.0299 µM | 40.1% | 38.4% | 7.2% | > 10 µM | –
8 | Cc1nn(CCCCc2ccnc(N)c2)c2ccc(NC(=O)NCCCn3cncc3C)cc12 | 98.7% | 50.3% | – | – | 7.7% | – | – | –
9 | Cc1nn(C)c2ccc(NC(=O)NCCCn3cncc3C)cc12 | 104% | 54.4% | – | – | – | – | – | inactive
10 | Cc1n[nH]c2ccc(N(C(=O)NCCCn3cncc3C)C3CCCCC3)cc12 | 100% | 74.4% | – | – | 8% | – | > 10 µM | –
11 | Cc1nn(C)c2cc(N(C(=O)NCCCn3cncc3C)C3CCCCC3)ccc12 | 102% | 52.2% | – | – | – | – | – | inactive
12 | Cc1cncn1CCCNC(=O)N(Cc1ccc(F)cc1)c1ccc2c(C)n(C)nc2c1 | 91.3% | 52% | – | – | 15% | – | – | –
13 | Cc1nn(C)c2ccc(N(Cc3cccnc3)C(=O)NCCCn3cncc3C)cc12 | 98.3% | 44.1% | – | – | – | – | < 10 µM | inactive
14 | Cc1n[nH]c2ccc(N(Cc3ccc(F)cc3)C(=O)NCCCn3cncc3C)cc12 | 97.2% | 80.6% | – | – | – | – | > 10 µM | inactive
15 | CCCOc1ccc([C@@H]2CNC(=O)N2c2ccc3nc[nH]c3c2)cc1 | – | – | – | – | 17.1% | – | – | –
16 | Cc1nn(C)c2cc(N(CC3CCCC3)C(=O)NCCCn3cncc3C)ccc12 | 107% | 70.3% | – | – | – | – | > 10 µM | inactive
